Drawing on PubChem BioAssay (NCI), this text covers TGI for 14 compounds.

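1) Cells in 96-well plates. 2) Compound, 48 h, 5 concentrations. 3) Linear interpolation between surrounding doses. 4) Unreached endpoint = highest concentration. Definition used: TGI = concentration required for complete inhibition of growth.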

Some test systems named below: HCT-116 colon; SK-MEL-5 melanoma; SK-MEL-2 melanoma; OVCAR-5 ovarian; KM12 colon; NCI/ADR-RES ovarian; ACHN renal; M14 melanoma; DU-145 prostate; MDA-MB-435; EKVX NSCLC; SN12C renal; SR leukemia.
Assay in all cases: NCI-60 cell line screen, 48 h

With `CC1=CC(C)C(C)N(CCNC(=O)Nc2ccccc2)c2ccccc21` (configuration not stated), the TGI with HCT-116 colon was found to be 35 µM; with SK-MEL-5 melanoma it was 27.8 µM; in the experiment with SK-MEL-2 melanoma, 56.2 µM; in the experiment on OVCAR-5 ovarian it was 92.6 µM; in the experiment on KM12 colon, 57.9 µM; in the experiment on NCI/ADR-RES ovarian, 67.9 µM. Moreover, the TGI is 63.7 µM in the experiment on ACHN renal; 70 µM in the experiment on M14 melanoma; above 100 µM with DU-145 prostate; 75.1 µM in the experiment on MDA-MB-435; 76.3 µM with EKVX NSCLC; above 100 µM with SN12C renal. The TGI with SR leukemia turned out to be 46.4 µM.
Regarding `COc1cccc2c1C(=O)C(=O)c1c-2oc(=O)c2cc(C)cc(OC)c12`, the TGI in the experiment with HCT-116 colon is above 75 µM; in the experiment on SK-MEL-5 melanoma, 35.6 µM; with SK-MEL-2 melanoma, 35.1 µM; in the experiment with OVCAR-5 ovarian, above 75 µM; in the experiment on KM12 colon, 53.9 µM; with NCI/ADR-RES ovarian, 31.7 µM. Besides, the TGI is above 75 µM in the experiment on ACHN renal; above 75 µM with M14 melanoma; 27.9 µM in the experiment on DU-145 prostate; 26.1 µM with MDA-MB-435; above 75 µM with EKVX NSCLC; above 75 µM in the experiment on SN12C renal. In addition, in the experiment with SR leukemia, the TGI is above 75 µM.
Regarding `C=C(Cl)C(C)(Cl)CCC(Cl)C(C)(C)Cl` (configuration not stated), the TGI in the experiment on HCT-116 colon, in the experiment on SK-MEL-5 melanoma, in the experiment on SK-MEL-2 melanoma, in the experiment with OVCAR-5 ovarian, in the experiment with KM12 colon and in the experiment with NCI/ADR-RES ovarian was above 100 µM each time. Moreover, the TGI with ACHN renal, in the experiment on M14 melanoma, in the experiment with DU-145 prostate, in the experiment on MDA-MB-435, in the experiment on EKVX NSCLC and with SN12C renal was above 100 µM in each case. In addition, the TGI in the experiment with SR leukemia is 61.3 µM.
`CCCCCCCC/C=C\CCCCCCCCNc1ccn(C2OC(COP(=O)(O)OC3CC(n4cc(F)c(=O)[nH]c4=O)OC3CO)C(O)C2O)c(=O)n1` (configuration not stated): the TGI in the experiment on HCT-116 colon, with SK-MEL-5 melanoma, in the experiment with SK-MEL-2 melanoma, in the experiment on OVCAR-5 ovarian, with KM12 colon and in the experiment with NCI/ADR-RES ovarian was above 100 µM throughout. Moreover, the TGI in the experiment with ACHN renal was above 100 µM; with M14 melanoma, above 73.5 µM; in the experiment on DU-145 prostate, above 100 µM; with MDA-MB-435, above 100 µM; in the experiment with EKVX NSCLC, above 100 µM; in the experiment on SN12C renal, above 100 µM. Moreover, in the experiment on SR leukemia, the TGI is 37.7 µM.
As to `NCC(=O)C(O)C(O)C(O)CO` (configuration not stated), the TGI in the experiment with HCT-116 colon, with SK-MEL-5 melanoma, in the experiment on SK-MEL-2 melanoma, with OVCAR-5 ovarian, in the experiment on KM12 colon and in the experiment with NCI/ADR-RES ovarian was above 100 µM throughout. In addition, the TGI in the experiment on ACHN renal, in the experiment with M14 melanoma, in the experiment with DU-145 prostate, in the experiment on MDA-MB-435, in the experiment on EKVX NSCLC and with SN12C renal was above 100 µM in each case. The TGI in the experiment on SR leukemia was above 100 µM.
As for `NC(=O)/N=C(\N)NC(=O)c1ccccc1`, the TGI with HCT-116 colon, in the experiment on SK-MEL-5 melanoma, with SK-MEL-2 melanoma, in the experiment on OVCAR-5 ovarian, in the experiment with KM12 colon and in the experiment with NCI/ADR-RES ovarian was above 100 µM throughout. In addition, the TGI in the experiment with ACHN renal, with M14 melanoma, in the experiment with DU-145 prostate, in the experiment with MDA-MB-435, with EKVX NSCLC and with SN12C renal was above 100 µM each time. In the experiment with SR leukemia, this compound registered a TGI above 100 µM.
For `CCOC(=O)CSc1nc(-c2ccc(OC)cc2)c(C#N)c(=O)[nH]1`, the TGI in the experiment on HCT-116 colon, in the experiment with SK-MEL-5 melanoma, in the experiment on SK-MEL-2 melanoma, in the experiment with OVCAR-5 ovarian, with KM12 colon and in the experiment with NCI/ADR-RES ovarian was above 100 µM throughout. For the same compound, the TGI in the experiment with ACHN renal, with M14 melanoma, in the experiment on DU-145 prostate, with MDA-MB-435, in the experiment with EKVX NSCLC and in the experiment with SN12C renal was above 100 µM in each case. In the experiment with SR leukemia, this compound came in with a TGI above 100 µM.
As to `CCOC(=O)Cn1c(=O)c2nc(SC)sc2n(-c2ccc(C)cc2)c1=S`, the TGI with HCT-116 colon was above 100 µM; in the experiment on SK-MEL-5 melanoma it was above 100 µM; with SK-MEL-2 melanoma it was 96.8 µM; with OVCAR-5 ovarian, above 100 µM; in the experiment with KM12 colon, above 100 µM; in the experiment with NCI/ADR-RES ovarian it was above 100 µM. In addition, the TGI in the experiment on ACHN renal, with M14 melanoma, with DU-145 prostate, in the experiment on MDA-MB-435, in the experiment with EKVX NSCLC and in the experiment with SN12C renal was above 100 µM throughout. The TGI with SR leukemia is above 100 µM.
Regarding `CC(C)(C)CN1[C@@H]2CCCC[C@H]2N(CC(C)(C)C)P1(=O)Cc1ccccc1`, the TGI amounted to 22.6 µM in the experiment with HCT-116 colon; 24.8 µM in the experiment with SK-MEL-5 melanoma; 29.9 µM in the experiment on SK-MEL-2 melanoma; 25.4 µM in the experiment with OVCAR-5 ovarian; 34.3 µM in the experiment with KM12 colon; 27.1 µM in the experiment on NCI/ADR-RES ovarian. Moreover, the TGI turned out to be 28.5 µM in the experiment with ACHN renal; 26.3 µM with M14 melanoma; 30 µM in the experiment on DU-145 prostate; 32.7 µM in the experiment with MDA-MB-435; 27.4 µM in the experiment on EKVX NSCLC; 30.1 µM in the experiment with SN12C renal. In addition, the TGI with SR leukemia stood at 29.7 µM.
With `CCCCCCCC1c2cc3[nH]c(cc4nc(cc5[nH]c(cc(n2)[C@@]1(C)CC(=O)N(C)C)c(C)c5CCC(=O)O)C(CCC(=O)O)=C4C)cc3C` (some centres not stated), the TGI in the experiment with HCT-116 colon stood at 32.5 µM; in the experiment on SK-MEL-5 melanoma, 51 µM; in the experiment on SK-MEL-2 melanoma, 34 µM; in the experiment with OVCAR-5 ovarian, 55.5 µM; with KM12 colon, 58.5 µM; with NCI/ADR-RES ovarian it was 43.1 µM. Besides, the TGI is 35.8 µM in the experiment on ACHN renal; 29.8 µM in the experiment with M14 melanoma; 57 µM in the experiment with DU-145 prostate; 92.5 µM in the experiment on MDA-MB-435; above 100 µM with EKVX NSCLC; 76.1 µM in the experiment on SN12C renal. Further, in the experiment with SR leukemia, the TGI turned out to be 44.6 µM.
Take `C[C@]12CC[C@@H]3c4ccc(OC(=O)c5ccccc5)cc4CC[C@H]3[C@@H]1CCC2OC(=O)c1cccc2c(=O)c3ccccc3[nH]c12` (some centres not stated): the TGI in the experiment on HCT-116 colon stood at 30.5 µM; in the experiment on SK-MEL-5 melanoma, 57.9 µM; with SK-MEL-2 melanoma, 54.3 µM; with OVCAR-5 ovarian, 46.1 µM; in the experiment on KM12 colon, 29.6 µM; in the experiment on NCI/ADR-RES ovarian it was 39.9 µM. For the same compound, the TGI came out at 46.8 µM with ACHN renal; 37.3 µM in the experiment on M14 melanoma; 42.6 µM in the experiment with DU-145 prostate; 15.4 µM with MDA-MB-435; 30.4 µM with EKVX NSCLC; 30.1 µM with SN12C renal. Besides, the TGI with SR leukemia was above 100 µM.
Regarding `CC1CCCOc2ccc(cc2)C=Nc2ccc(cc2)CCc2ccc(cc2)N=Cc2ccc(cc2)OCCC1` (configuration not stated), the TGI with HCT-116 colon, in the experiment with SK-MEL-5 melanoma, in the experiment with SK-MEL-2 melanoma, in the experiment on OVCAR-5 ovarian, in the experiment on KM12 colon and in the experiment on NCI/ADR-RES ovarian was above 100 µM each time. Besides, the TGI with ACHN renal, with M14 melanoma, in the experiment on DU-145 prostate, in the experiment on MDA-MB-435, with EKVX NSCLC and with SN12C renal was above 100 µM in each case. Further, in the experiment with SR leukemia, the TGI was above 100 µM.
As for `CCOC(=O)c1sc2nc(SC)nc(Nc3ccc4c(c3)OCCCO4)c2c1N`, the TGI in the experiment with HCT-116 colon was above 100 µM; in the experiment with SK-MEL-5 melanoma, 18.7 µM; in the experiment on SK-MEL-2 melanoma, above 100 µM; in the experiment on OVCAR-5 ovarian, above 100 µM; with KM12 colon, above 100 µM; with NCI/ADR-RES ovarian it was above 100 µM. Further, the TGI in the experiment with ACHN renal, in the experiment with M14 melanoma, with DU-145 prostate, with MDA-MB-435, in the experiment on EKVX NSCLC and in the experiment on SN12C renal was above 100 µM throughout. In the experiment on SR leukemia, this compound yielded a TGI above 100 µM.
Take `N#Cc1c(C#N)c(-c2cccc([N+](=O)[O-])c2)n(-c2ccccc2)c1N`: the TGI in the experiment on HCT-116 colon, with SK-MEL-5 melanoma, with SK-MEL-2 melanoma, in the experiment on OVCAR-5 ovarian, with KM12 colon and in the experiment with NCI/ADR-RES ovarian was above 100 µM each time. Further, the TGI in the experiment on ACHN renal, with M14 melanoma, in the experiment on DU-145 prostate, in the experiment with MDA-MB-435, with EKVX NSCLC and in the experiment with SN12C renal was above 100 µM throughout. In the experiment with SR leukemia, the TGI is above 100 µM.
